Tests used:
[1] = tested on: human colon cancer cells HCT116; assay: MTT assay, tumor cell growth inhibition, HCT116; format: cell-based; conditions: HCT-116, 48 hours
Excerpt: (§1) MTT Assay—Inhibitory Effect of 6-dithio-substituted-2′-deoxyguanosine Derivatives on Tumor Cell Growth
(§2) We measured the tumor cell growth inhibitory activity of candidate compounds by MTT assay. Human tumor cells in logarithmic growth phase were digested with 0.25% pancreatin for a certain time, centrifuged, re-suspended and counted with a blood cell counting plate to prepare a cell suspension, and the cell suspension was adjusted to 1.0×10^4-1×10^5 cells/mL. The cell suspension was inoculated into a 96-well culture plate, 100 μL per well, and cultured in an incubator with saturated humidity, 37° C. and 5% CO2 for 24 hours until the cells completely adhered to the wall. The test compound was diluted to the required concentration with a complete medium, the complete medium of the 96-well culture plate inoculated with human tumor cells was sucked out, a medicament-containing medium was added, 100 μL per well, the final concentration of DMSO was less than 0.1%, and the culture plate was put in an incubator for 48 hours. 10 μl of MTT was added to each well of the 96-well plate, and the culture was continued for 4 h. The culture was stopped and the culture solution in the well was carefully sucked off. 150 μL DMSO was added to each well, and shaken at a low speed for 10 min on a shaking table, so that the crystal was fully dissolved. The absorbance of each well was measured at OD 570 nm of an enzyme-linked immunosorbent assay instrument. At the same time, zeroing wells (the culture medium, MTT, dimethyl sulfoxide) and control wells (cells, a drug dissolution medium with the same concentration, a culture solution, MTT, dimethyl sulfoxide) were set up, and the cell growth inhibitory activity was calculated with the corresponding solvents as the control. 3-6 multiple wells in each group were set up with repetition of several times. Cell viability of control=(Adrug group−Azeroing well)/(Acontrol well−Azeroing well)*100%. Drawing was drawn, the data were fitted into a concentration response curve with a variable slope, and IC50 value was calculated from the curve.

[2] = tested on: human melanoma cells A375; assay: MTT assay, tumor cell growth inhibition, A375; format: cell-based; conditions: A-375, 48 hours
Excerpt: as §1, §2

[3] = biological target: T1, TrxR/Trx-1 (Homo sapiens, UniProt P10599); assay: Ellman test, inhibition of TrxR/Trx-1 activity; format: biochemical; conditions: read-out: TrxR/Trx-1 IC50
T1 sequence (P10599 2-105 limits assumed): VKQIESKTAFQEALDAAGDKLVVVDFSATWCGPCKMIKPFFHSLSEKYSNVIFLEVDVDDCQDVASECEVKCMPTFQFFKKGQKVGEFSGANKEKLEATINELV
Excerpt: Ellman Test—Inhibitory Effect of 6-dithio-substituted-2′-deoxyguanosine Derivative Analogues on TrxR/Trx-1 Activity
A TrxR/TR experiment based on the Ellman reaction was used to determine the inhibitory activity of candidate compounds. Ellman reaction is that 5,5′-dithiobis (2-nitrobenzoic acid) (DTNB) reacts with sulfhydryl (—SH) to form a yellow substance with absorption at 412 nm. The increase of absorption can be equivalent to the decrease of NADPH mediated by TrxR, thus further judging the activity of TrxR/Trx-1. All experiments were carried out on 96-well plates. Before the start of the enzyme reaction, five groups of corresponding test compound stock solutions with different concentrations were prepared. In the TrxR/Trx-1 reaction, a total volume per well was 60 μL, including 100 mM HEPES, 5 mM EDTA (HE buffer, pH 7.5), 1 mM NADPH, 1.0 μM TrxR, 0.8 μM Trx-1, 2.5 mg/mL bovine insulin and the required concentration of compounds to be tested. No compound to be tested was added to the control group. No compound to be tested, TrxR and Trx-1 were added in the blank group. The plate was shaken on an oscillator for 30 seconds to fully mix the reactants. After incubation at 37° C. for 30 min, 100 μL of the prepared mixture containing 6 M guanidine hydrochloride, 50 mm Tris and 10 mm DTNB was added to terminate the reaction. After 15 minutes of incubation, the absorbance was measured at 412 nm. Finally, TrxR/Trx-1 activity %=(Atest−Akb)/(Acontrol−Akb), that is, the relative percentage of TrxR/Trx-1 activity was the activity inhibited by adding 2′-deoxyguanosine derivatives relative to the activity without 2′-deoxyguanosine derivatives. The data were fitted into a concentration response curve with a variable slope, and the IC50 value was calculated from the curve.

[4] = tested on: NCM460; assay: MTT assay, cell growth inhibition, NCM460; format: cell-based; conditions: Homo sapiens, 48 hours, read-out: Tumor cell growth inhibition IC50, NCM460
Excerpt: as §1, §2

[5] = tested on: human leukemia cells K562; assay: MTT assay, tumor cell growth inhibition, K562; format: cell-based; conditions: 48 hours
Excerpt: as §1, §2

[6] = A375 tumor-bearing mouse model, body weight, toxicity and blood biochemical indexes; format: in vivo; conditions: compound D 10 mg/kg
Procedure: (§3) 2) Human Melanoma Cell A375 Tumor-Bearing Mouse Model
(§4) We further studied the inhibitory effect of the compound D on human malignant melanoma by using A375 tumor-bearing mouse model. The method was basically the same as above. Dacarbazine (DTIC) is the first-line drug for melanoma. The designed administration groups were: compound D 10 mg/kg group; 6-thio-dG+PX12 combined drug group (the dose is equivalent to twice the molar amount of the compound D); DTIC 20.4 mg/kg group (the dose is equivalent to 4 times the molar amount of the compound D) and blank solvent group.

[7] = tested on: human breast cancer cells Bcap37; assay: MTT assay, tumor cell growth inhibition, Bcap37; format: cell-based; conditions: 48 hours
Excerpt: as §1, §2

[8] = tested on: human melanoma cell A375 tumor; assay: Human melanoma cell A375 tumor-bearing mouse model, antitumor effect; format: in vivo, nude mice; conditions: compound D 10 mg/kg, DTIC 20.4 mg/kg (4 times molar), 6-thio-dG+PX12 at twice the molar amount
Procedure: as §3, §4

[9] = tested on: human liver cancer cells HepG2; assay: MTT assay, tumor cell growth inhibition, HepG2; format: cell-based; conditions: 48 hours
Excerpt: as §1, §2

[10] = tested on: human gastric cancer cells BGC; assay: MTT assay, tumor cell growth inhibition, BGC; format: cell-based; conditions: 48 hours
Excerpt: as §1, §2

Compound: CC(C)SSc1nc(N)nc2c1ncn2[C@H]1C[C@H](O)[C@@H](CO)O1 [D, 6-(isopropyldithio)-2′-deoxyguanosine]
- IC50 [1]: 1.09 µM
- IC50 [2]: 0.37 µM
- IC50 [3]: 4.26 µM
- IC50 [4]: > 1000 µM
- IC50 [5]: 15.7 µM
- Body weight [6]: after 13 days of administration, the body weight was significantly higher than that of DITC group, 6-thio-dG and PX-12 combination group
- Toxicity compared with 6-thio-dG and PX-12 combination ([6]; combination at twice the molar amount): lower toxicity than the combined drug group
- IC50 [7]: 22.8 µM
- Antitumor effect (tumor volume) compared with controls [8]: significantly higher than that of DITC
- IC50 [9]: < 10 µM
- IC50 [10]: 11.7 µM
